Values joined by “and” are separate entries in the source; they are usually repeats but may differ in a detail not shown here. Identical values can stand only once.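 Values below derive from 48-hour exposures of cells grown in 96-well plates, with endpoints linearly interpolated between the two concentrations bracketing the appropriate inhibition level. GI50 marks 50% less growth. The concentration for full growth arrest is given as TGI.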
Columns and labels:
Assay in all cases: growth of human tumour cells (NCI), 48 h
SK-MEL-5 melanoma = tested on: SK-MEL-5 melanoma
KM12 colon = tested on: KM12 colon
SK-MEL-28 melanoma = tested on: SK-MEL-28 melanoma
RXF 393 renal = tested on: RXF 393 renal
K-562 leukemia = tested on: K-562 leukemia
SK-MEL-2 melanoma = tested on: SK-MEL-2 melanoma
SK-OV-3 ovarian = tested on: SK-OV-3 ovarian
MOLT-4 leukemia = tested on: MOLT-4 leukemia
SNB-19 CNS = tested on: SNB-19 CNS
IGROV1 ovarian = tested on: IGROV1 ovarian

Row | Structure (SMILES) | TGI (SK-MEL-5 melanoma) [µM] | TGI (KM12 colon) | TGI (SK-MEL-28 melanoma) [µM] | TGI (RXF 393 renal) [µM] | TGI (K-562 leukemia) [µM] | TGI (SK-MEL-2 melanoma) [µM] | TGI (SK-OV-3 ovarian) [µM] | TGI (MOLT-4 leukemia) [µM] | TGI (SNB-19 CNS) [µM] | GI50 (SK-MEL-5 melanoma) | GI50 (KM12 colon) | GI50 (IGROV1 ovarian) | GI50 (SK-MEL-28 melanoma) | GI50 (RXF 393 renal) | GI50 (MOLT-4 leukemia) | GI50 (SNB-19 CNS) | TGI (IGROV1 ovarian) [µM] | GI50 (K-562 leukemia) [µM] | GI50 (SK-MEL-2 melanoma) [µM] | GI50 (SK-OV-3 ovarian) [µM]
1 | O=C(c1cc(Cl)cc(Cl)c1)N(Cc1cccnc1)C(=S)N(Cc1cccnc1)C(=O)c1cc(Cl)cc(Cl)c1 | 76 | > 100 µM | > 100 | 92.7 | > 100 | 99.2 | > 100 | > 100 | > 100 |  |  |  |  |  |  |  |  |  |  | 
2 | CC[C@@]1(O)C(=O)OCc2c1cc1n(c2=O)Cc2cc3c(CN(C)C)c(O)ccc3nc2-1 |  | 7.58 µM and 15.1 µM and 12.2 µM |  |  |  |  |  |  |  | 0.0197 µM and 0.0191 µM and 0.0448 µM | 0.15 µM and 0.413 µM and 0.35 µM | 0.231 µM and 0.116 µM and 0.392 µM | 0.299 µM and 1.36 µM | 0.0188 µM and 0.0182 µM and 0.0775 µM | < 0.01 µM and 0.00317 µM | < 0.0131 µM and 0.026 µM |  |  |  | 
3 | O=c1ccn(Cc2ccccc2CCl)c(=O)[nH]1 | 23.3 | 83.3 µM | > 100 | 53.5 | > 100 | 89 | > 100 | > 100 | > 100 |  |  |  |  |  |  |  | 55.3 |  |  | 
4 | O=c1ccc2c(Cl)cccc2o1 | > 100 | > 100 µM | > 100 | > 100 | > 100 | > 100 |  | > 100 | > 100 |  |  |  |  |  |  |  | > 100 |  |  | 
5 | O=c1oc2ccc3ccccc3c2cc1-c1nc(-c2ccc([N+](=O)[O-])cc2)n[nH]1 | > 100 | > 100 µM | > 100 |  | > 100 | > 100 | 52.7 | > 100 | > 100 |  |  |  |  |  |  |  | 51.8 |  |  | 
6 | O=C(CC(Cc1ccccc1)c1ccc(Oc2ccccc2)cc1)Nc1cccc(Cl)c1 (stereo unspecified) | 26.8 | > 100 µM | > 100 | 62.8 | > 100 | 13.6 | > 100 | 39.3 | > 100 |  |  |  |  |  |  |  | 16.3 |  |  | 
7 | Fc1cc(C2=Nn3c(CNc4ccc(Cl)cc4)nnc3S/C2=C\c2ccc(-c3ccc(Cl)cc3)o2)c(Cl)cc1Cl | > 100 | > 100 µM | > 100 | 61.4 | > 100 | > 100 |  | > 100 | > 100 |  |  |  |  |  |  |  | > 100 |  |  | 
8 | CC(C)(C)CNCCCNc1ccc(Cl)cc1 |  | > 100 µM | 44.3 | 74.3 |  | > 100 | > 100 | 25.6 | > 100 |  |  |  |  |  |  |  | > 100 |  |  | 
9 | OC(c1ccccc1)C1CC2C=CC1C2 (stereo unspecified) | > 100 | > 100 µM | > 100 | > 100 | > 100 | > 100 | > 100 | > 100 | > 100 |  |  |  |  |  |  |  | > 100 |  |  | 
10 | Clc1ccc(OCc2nnc3sc(SSc4nn5c(COc6ccc(Cl)cc6)nnc5s4)nn23)cc1 | > 100 | > 100 µM | > 100 |  | > 100 | > 100 | > 100 |  | > 100 |  |  |  |  |  |  |  | > 100 |  |  | 
11 | CSC1=C(SC)C(=O)c2cn(C)c(=O)cc2C1=O | 3.15 | 48.3 µM | 6.69 | 3.43 | 0.424 | 17.1 | 31.3 | 3.52 | 31.1 |  |  |  |  |  |  |  | 25.4 |  |  | 
12 | C1=Nc2ccccc2Cn2nncc21 |  | > 100 µM | > 100 | > 100 | > 100 | > 100 | > 100 | > 100 | > 100 |  |  |  |  |  |  |  | > 100 |  |  | 
13 | CC(C)=CC1C(COC(=O)c2ccccc2Cl)C1(C)C (stereo unspecified) | 65.3 | 99.1 µM | > 100 | 65.6 | > 100 | > 100 |  | > 100 | > 100 |  |  |  |  |  |  |  | 57.6 |  |  | 
14 | CC(C(=O)NCCNC(=O)CCCC(=O)N(C)O)C(=O)NCCNC(=O)CCCC(=O)N(C)O | > 100 | > 100 µM | > 100 | > 100 | > 100 | > 100 | > 100 | > 100 | > 100 |  |  |  |  |  |  |  | > 100 |  |  | 
15 | CC1=NN(c2cccc(Cl)c2)C2(C1=Cc1cccs1)C(Cl)C(=O)N2c1nc2ccccc2s1 (stereo unspecified) | 36.2 | > 100 µM | > 100 | 45.8 | 72.4 | 36.5 |  | 57.1 |  |  |  |  |  |  |  |  | > 100 |  |  | 
16 | COc1ccc(N2C(=O)C(=O)N(C)C2=O)c2ccccc12 | > 10 | > 10 µM | > 10 | > 10 | > 10 | > 10 | > 10 | > 10 | > 10 |  |  |  |  |  |  |  | > 10 |  |  | 
17 | OCC(O)C(O)C(O)C(O)CNCCO/N=C1/C(c2c(O)[nH]c3ccccc23)=Nc2ccccc21 (stereo unspecified) | 16.3 | > 50 µM | 20.7 | 39.2 | 44.4 | 15.7 | 29.8 | 36.3 | 35.9 |  |  |  |  |  |  |  | > 50 |  |  | 
18 | O=S(=O)(Nc1nccs1)c1ccc([As](=O)(O)O)cc1 | > 100 | > 100 µM | > 100 | > 100 | > 100 | > 100 | > 100 | > 100 | > 100 |  |  |  |  |  |  |  | > 100 |  |  | 
19 | O=[N+]([O-])c1ccc(Cc2nc3cc4ccccc4cc3[nH]2)cc1C(F)(F)F | 25.1 | 30.3 µM | > 100 | 32.1 | 30.3 | 44.4 | 31 | 87.7 | 39 |  |  |  |  |  |  |  |  |  |  | 
20 | Fc1ccc(Nc2ncc(-c3cc(F)c(Cl)cc3Cl)s2)cc1Cl | 25.9 | 13.3 µM | > 100 | 24.3 | 15.5 | 57.9 | > 100 | 18.6 | > 100 | 12.3 µM | 2.69 µM | 26.2 µM | 79.9 µM | 6.67 µM | 5.46 µM | > 100 µM | > 100 | 3.46 | 22.8 | 90.8
21 | CC(C)NC(=O)OCc1nnn2c1CCC2 | > 100 | > 100 µM | > 100 | > 100 | > 100 | > 100 | > 100 | > 100 |  |  |  |  |  |  |  |  | > 100 |  |  | 
22 | O=[N+]([O-])c1ccc(NNN=Nc2ccc(-c3nc4ccccc4[nH]3)cc2)c([N+](=O)[O-])c1 | 87.5 | > 100 µM | > 100 | > 100 | 79.7 | 88.6 | > 100 | > 100 | > 100 |  |  |  |  |  |  |  | > 100 |  |  | 
23 | Clc1ccc(C2CC(c3cccc(Nc4ccncc4)c3)=NN2c2ccccc2)cc1 (stereo unspecified) | 3.26 | 3.28 µM | 3.24 | 3.08 | 5.45 | 3.84 | 7.33 | 4.32 | 3.18 | 1.82 µM | 1.7 µM | 1.56 µM | 1.77 µM | 1.67 µM | 1.83 µM | 1.71 µM | 3.04 | 1.67 | 1.98 | 2.57
24 | CC(C)C(=O)Nc1ccc(-c2nc(-c3cccc(OCCN4CCOCC4)c3)c(-c3ccnc(Br)c3)[nH]2)cc1 | 3.25 | > 100 µM | 5.02 | 2.91 |  | 5.54 | 5.53 | > 100 | > 100 | 1.79 µM | 3.2 µM | 3.75 µM | 1.98 µM | 1.24 µM | 2.31 µM | 3.46 µM | > 100 |  | 2.21 | 2.45
25 | COc1ccc(/C=C2\C[C@H]3[C@@H]4CC=C5C[C@@H](OC(C)=O)CC[C@]5(C)[C@H]4CC[C@]3(C)C2=O)cc1OC | 26.4 | > 100 µM | > 100 | > 100 | > 100 | > 100 |  | > 100 | > 100 |  |  |  |  |  |  |  | > 100 |  |  | 
26 | N#CC(NNC(=O)c1c(Cl)c(Cl)c(Cl)c(Cl)c1-c1nc2ccc(C(=O)c3ccccc3)cc2[nH]1)c1ccccc1 (stereo unspecified) | 13.3 | > 100 µM | > 100 | 22.8 | 19.3 | 58.1 | 69.8 | 27.7 | 99.2 |  |  |  |  |  |  |  | > 100 |  |  | 
